The test system of this test is BJ fibroblasts. Put plainly: Feeder-free reprogramming of BJ fibroblasts to iPSCs on MATRIGEL GFR matrix (Example 11). It counts as cell-based, human. The settings on record: Day 17. How it is done: In EXAMPLE 11 embodiments, each in vitro-synthesized pseudouridine-containing ssRNA (i.e., synthesized using ΨTP in place of UTP in the IVT reaction) that encoded an iPSC induction factor [e.g., OCT4, SOX2, KLF4, LIN28, and either cMYC or cMYC(T58A)] or other pseudo-uridine-containing ssRNAs transfected together with the iPSC induction factors was treated with RNase III with 1 mM Mg(OAc)2 prior to capping and tailing of the ssRNA. In this EXAMPLE 11, the RNAse III treatment reactions also contained 0.8 U/microliter SCRIPTGUARD™ RNase inhibitor (CELLSCRIPT, INC.).
Prior to use for reprogramming, BJ fibroblasts (ATCC) were plated 5×10^4 cells per well on 6-well tissue culture plates coated with 83 ng per well of MATRIGEL™ GFR matrix (BD Biosciences, San Jose, Calif.) in Advanced MEM (Invitrogen, Carlsbad, Calif.) supplemented with 10% FBS (Fisher) and 2 mM GLUTAMAX™-I (Invitrogen, Carlsbad, Calif.), a minimum essential medium (MEM) useful for growth of fibroblast cells.
On the following day, the medium was changed to a “Feeder-free Reprogramming Medium” developed by the present applicants. This Feeder-free Reprogramming Medium was composed of Dulbecco's modified Eagle medium with nutrient mixture F-12 (DMEM/F12; (DMEM/F12; Invitrogen, Carlsbad, Calif.) supplemented with 20% KNOCKOUT™ serum replacement (Invitrogen), 2 mM GLUTAMAX™-I (Invitrogen), 0.1 mM non-essential amino acids solution (Invitrogen), 2 micromolar of the transforming growth factor 0 (TGFβ) inhibitor STEMOLECULE™ SB431542 (Stemgent®, Cambridge, Mass., USA), 0.5 micromolar of the MEK signaling pathway inhibitor STEMOLECULE™ PD0325901 (Stemgent), and/or 10 ng/ml the recombinant mouse cytokine, leukemia inhibitory factor (LIF or mLIF; Invitrogen, Carlsbad, Calif.), and 100 ng/ml basic human recombinant fibroblast growth factor (FGF; Invitrogen) with penicillin-streptomycin antibiotics. In some experiments, a lower or higher concentration of one or more of these inhibitors is used (e.g., 1-20 micromolar of the TGFβ inhibitor, 0.5-10 micromolar of the MEK signaling inhibitor, and/or 5-50 ng/ml the recombinant mouse cytokine, leukemia inhibitory factor). Since some of the molecules being inhibited may be introduced by the reagents or media used (e.g., TGFβ in the MATRIGEL™ or other extracellular matrix, the concentrations of the inhibitors used may vary based on the reagents and media used. In some experiments, the TGFβ inhibitor, MEK signaling inhibitor, and/or LIF was omitted from the feeder-free reprogramming medium. The Feeder-free Reprogramming Medium was changed daily one hour prior to each transfection with mRNA reprogramming factors. […] kit (Minis Bio LLC, Madison, Wis., USA) as described in the product literature: Briefly, a solution comprising a mixture of all of the mRNA reprogramming factors was diluted with 250 microliters of OPTI-MEM® I reduced serum medium (Invitrogen, Carlsbad, Calif.), and then 2.4 microliters of TRANSIT™ BOOST was added and mixed, followed by 2.4 microliters of the TRANSIT™ transfection reagent. In some embodiments, no inhibitor of expression of an innate immune response pathway was used. In some other embodiments, 132 ng of pseudouridine-containing mRNA encoding the B18R protein was added to the reprogramming factors comprising mRNA encoding OCT4, SOX2, KLF4, LIN28, and cMYC for reprogramming BJ fibroblasts. This transfection mix was applied dropwise to cells. Cells were then incubated at 37° C. in 5% CO2 until the next day's transfection. After 18 transfections, the medium was changed to a different “iPSC Maintenance Medium” that that was composed of DMEM/F12 supplemented with 20% KNOCKOUT™ serum replacement, 1 mM L-glutamine, 0.1 mM non-essential amino acids solution, and 100 ng/ml basic human recombinant fibroblast growth factor (FGF) (all from Invitrogen, Carlsbad, Calif.) with penicillin-streptomycin antibiotics for a few more days until iPSC colonies were big enough to pick manually. […]

Each structure is given as a SMILES string.

In the case of `O=C(NOC[C@H](O)CO)c1ccc(F)c(F)c1Nc1ccc(I)cc1F` [PD0325901], the “iPSC Colonies Observed” value (PD0325901 0 μM, 2 micromolar SB431542) is given as 1; the “iPSC Colonies Observed” value (PD0325901 0.5 μM, 2 micromolar SB431542) was 77; the “iPSC Colonies Observed” value (PD0325901 1 μM, 2 micromolar SB431542) is 27; the “iPSC Colonies Observed” value (PD0325901 2 μM, 2 micromolar SB431542) is 94; the “iPSC Colonies Observed” value (PD0325901 10 μM, 2 micromolar SB431542) was found to be 11; the “iPSC Colonies Observed” value (PD0325901 15 μM, 2 micromolar SB431542) was 0.

Consider `NC(=O)c1ccc(-c2nc(-c3ccc4c(c3)OCO4)c(-c3ccccn3)[nH]2)cc1` [SB431542], for which the “iPSC Colonies Observed” value runs as follows: (SB431542 0 μM, five-factor Ψ-mRNA mix daily for 17 days) 0; (SB431542 1 μM) 9; (SB431542 2 μM) 71; (SB431542 4 μM) 160.

Values taken from US20130189741A1, “COMPOSITIONS AND METHODS FOR REPROGRAMMING MAMMALIAN CELLS” (Cellscript, Inc., priority 2009, published 2013).
